Assay results reported in patent publication US8318186B2, “Use of at least a fatty ester for preparing a composition designed to inhibit 5-α-reductase activity, in pharmacology, in particular dermatology, in cosmetics and as food additive” (Laboratoires Expanscience, priority 2000, dated 2012).
Values joined by “and” are separate entries in the source; they are usually repeats but may differ in a detail not shown here. Equal entries are not always repeated. Marks after values point to notes of the source that are not given here.

Columns and labels:
5α-reductase = test: Fatty acid esters on 5α-reductase activity, conversion of testosterone to 5α-dihydrotestosterone in normal human dermal fibroblast cultures (Example 4); assay type: cell-based; parameters: key to group by 5α-reductase inhibitory activity: group A with the highest inhibitory activity; group B with an intermediate inhibitory activity; details: for inhibition of the 5α-reductase activity: Example 4, p<0.05; for 5α-DHT formed per culture well, mean / 5α-DHT formed per culture well, single well: after 24 of incubation, DMSO 0.1% (v/v); for 5α-DHT formed per culture well, single well: single replicate
Description: The fibroblast culture medium (FCM) consisted of MEM/M199 (3:1, v/v) supplemented with penicillin (50 IU/ml), streptomycin (50 μg/ml), sodium bicarbonate (0.2%, w/v) and FCS (10%, v/v).
The assay system consisted of normal human dermal fibroblasts cultured as a monolayer. The fibroblasts were isolated from a residue from abdominal plastic surgery performed on a person (subject BIOPREDIC No. I0013). The cells were used at the fifth passage; they were cultured until the monolayers were confluent in FCM medium at 37° C. in a humid atmosphere containing 5% CO2.
The fibroblast incubation medium (FIM) consisted of FCM supplemented with tritiated testosterone (1.6×10^−7 M, that is 6.32 μCi/ml) and nonradiolabeled testosterone (3.84×10^−6 M)
The test products and finasteride were taken up in DMSO before being diluted in the incubation medium. […]
The fibroblast cultures were preincubated in the presence of the test products or of the reference product for 2 hours before adding the substrate, testosterone. For this step, the test products and the reference product were prepared in the FCM medium.
After preincubation, the fibroblast cultures were incubated in the presence of the test products or of the reference product prepared in the FIM medium for 22 hours at 37° C. in a humid atmosphere containing 5% CO2. Control cultures were incubated in the FIM medium in the absence of test products and of reference product. […]
Each experimental condition was tested in triplicate.
After the incubation period, the cells were subjected to the action of ultrasound in the FIM medium. The cellular lysates thus obtained were extracted with dichloromethane. After evaporation, the dry residues were taken up in methanol and were deposited on 60F254 silica plates (MERCK, reference 5554).
The migration solvent was a mixture of dichloromethane and ether (7:3, v/v) At the end of the migration, the silica plates were read using a BERTHOLD radioactivity scanner.
The metabolizing of testosterone to 5α-dihydro-testosterone under the various experimental conditions was calculated: the results (areas of the 5α-dihydrotestosterone peaks counted by the BERTHOLD scanner) were expressed in pmol of 5α-dihydro-testosterone formed per culture well. They were also expressed as a percentage of the 5α-reductase activity present in the “DMSO control” group.
The groups of data (control group and treated groups) were treated by a one-way analysis of variance (ANOVA 1, p<0.05), followed by a DUNNETT's test (p<0.05). The effect of the test products and of the reference product was compared with the “DMSO control” group. The effects of the test products were compared to each other by a two-way analysis of variance (ANOVA 2, p<0.05, factor 1=concentration and factor 2=treatment).
The same materials and methods are used as in example 3 above.
It was proposed to evaluate the effect of fatty acid esters on the 5α-reductase activity. An in vitro model of normal human dermal fibroblast cultures was selected. The products tested were chosen from the group of fatty acid esters varying in the length and the functionality of the fatty chain, and the nature of the alkoxy group. These esters are the following: methyl oleate, methyl linoleate, methyl stearate, methyl laurate, methyl undecylenate, butyl oleate, oleyl oleate and methyl ricinoleate.

[1] = test system: normal human dermal fibroblasts; test: Morphological examination of the fibroblasts (Example 4); assay type: cell-based; details: at 10 and 100 μg/ml

state of the fibroblasts by morphological examination of the cells [1]: cellular suffering
SMILES: CCCCCCCC/C=C\CCCCCCCCOC(=O)CCCCCCC/C=C\CCCCCCCC [Oleyl oleate, oleyl oleate]
5α-reductase activity as percentage of the “DMSO 0.1% (v/v)” group (5α-reductase; 1 μg/ml): 72 percentage of the “DMSO 0.1% (v/v)” group
inhibition of the 5α-reductase activity (5α-reductase; 1 μg/ml): 28%
5α-DHT formed per culture well, mean (5α-reductase; 1 μg/ml): 8.17* +/− pmol of 5α-DHT formed/culture well
5α-DHT formed per culture well, single well (5α-reductase; 1 μg/ml): 9.00 pmol of 5α-DHT formed/culture well and 7.32 pmol of 5α-DHT formed/culture well and 8.20 pmol of 5α-DHT formed/culture well
5α-reductase activity as percentage of the “DMSO 0.1% (v/v)” group (5α-reductase; 10 μg/ml): 55 percentage of the “DMSO 0.1% (v/v)” group
inhibition of the 5α-reductase activity (5α-reductase; 10 μg/ml): 45%
5α-DHT formed per culture well, mean (5α-reductase; 10 μg/ml): 6.25* +/− pmol of 5α-DHT formed/culture well
5α-DHT formed per culture well, single well (5α-reductase; 10 μg/ml): 6.12 pmol of 5α-DHT formed/culture well and 6.44 pmol of 5α-DHT formed/culture well and 6.20 pmol of 5α-DHT formed/culture well
5α-reductase activity as percentage of the “DMSO 0.1% (v/v)” group (5α-reductase; 100 μg/ml): 65 percentage of the “DMSO 0.1% (v/v)” group
inhibition of the 5α-reductase activity (5α-reductase; 100 μg/ml): 35%
5α-DHT formed per culture well, mean (5α-reductase; 100 μg/ml): 7.45* +/− pmol of 5α-DHT formed/culture well
5α-DHT formed per culture well, single well (5α-reductase; 100 μg/ml): 6.28 pmol of 5α-DHT formed/culture well and 8.60 pmol of 5α-DHT formed/culture well and 7.48 pmol of 5α-DHT formed/culture well
group by 5α-reductase inhibitory activity (5α-reductase; tested at 1, 10 and 100 μg/ml): A
